Assay results taken from patent US20170291890A1 (Epizyme, Inc., priority 2014, published 2017).

Molecular target: T1, KDM5A (Homo sapiens, UniProt P29375)
T1 construct: C-terminal FLAG-tagged KDM5A^1-1090 was purchased from BPS Biosciences; FLAG (C); purchased BPS Biosciences
T1 sequence (P29375 1-1090): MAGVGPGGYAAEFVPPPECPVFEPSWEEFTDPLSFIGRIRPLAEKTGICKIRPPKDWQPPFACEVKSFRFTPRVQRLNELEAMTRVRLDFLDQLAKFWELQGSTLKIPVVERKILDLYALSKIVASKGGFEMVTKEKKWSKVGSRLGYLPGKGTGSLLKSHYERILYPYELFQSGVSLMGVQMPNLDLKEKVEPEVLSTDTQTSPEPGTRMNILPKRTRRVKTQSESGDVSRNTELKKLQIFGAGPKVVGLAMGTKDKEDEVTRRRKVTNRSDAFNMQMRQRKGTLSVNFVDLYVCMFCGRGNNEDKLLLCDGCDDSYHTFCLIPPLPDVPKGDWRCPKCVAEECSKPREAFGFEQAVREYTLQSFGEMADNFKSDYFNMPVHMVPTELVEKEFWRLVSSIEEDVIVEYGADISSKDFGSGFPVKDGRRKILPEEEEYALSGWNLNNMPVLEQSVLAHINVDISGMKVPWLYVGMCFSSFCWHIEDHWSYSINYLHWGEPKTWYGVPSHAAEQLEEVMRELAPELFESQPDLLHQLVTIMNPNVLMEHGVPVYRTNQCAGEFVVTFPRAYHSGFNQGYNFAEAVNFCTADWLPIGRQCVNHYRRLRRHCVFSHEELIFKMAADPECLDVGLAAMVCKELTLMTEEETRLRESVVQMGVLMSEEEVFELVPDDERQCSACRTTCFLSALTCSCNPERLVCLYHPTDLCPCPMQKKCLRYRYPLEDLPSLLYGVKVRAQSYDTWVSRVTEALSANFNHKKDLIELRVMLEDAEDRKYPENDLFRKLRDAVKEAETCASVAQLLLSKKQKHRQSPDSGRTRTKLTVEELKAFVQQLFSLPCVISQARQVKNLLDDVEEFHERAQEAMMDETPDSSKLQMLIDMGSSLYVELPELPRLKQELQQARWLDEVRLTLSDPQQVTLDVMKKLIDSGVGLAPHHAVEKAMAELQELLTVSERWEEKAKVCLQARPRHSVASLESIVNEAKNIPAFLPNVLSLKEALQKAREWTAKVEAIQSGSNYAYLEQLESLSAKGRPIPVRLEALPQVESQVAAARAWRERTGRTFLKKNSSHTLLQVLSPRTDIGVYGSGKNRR
Experiment: KDM5A Assay (SAMDI mass spectrometry demethylase assay)
Type: biochemical
Details: C-terminal FLAG-tagged KDM5A 1-1090; class symbols; read-out: 5A IC50
In short: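 FLAG-tagged KDM5A 1-1090 (20 nM) preincubated 30 min with compound in pH 8.0 HEPES buffer with ascorbate, Fe(II), TCEP, then reacted 150 min at 25 °C with H3K4me3 peptide (250 nM) and 2-oxoglutarate (15 μM). Formic acid-quenched; SAMDI-MS substrate/product AUC conversion; IC50 from dose-response.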

SMILES | IC50 [µM]
Cc1nn(C2CCN(C(=O)c3ccccc3)CC2)cc1Nc1cnccc1C(=O)O [Compound 97, 3-(1-(1-benzoylpiperidin-4-yl)-3-methyl-1H-pyrazol-4-ylamino) isonicotinic acid] | 0.1 to 1
Cc1c(Nc2cnccc2C(=O)O)cnn1C1CCN(C2CCC2)CC1 [Compound 96] | 1 to 10
Cc1n[nH]c(C)c1Nc1cnccc1C(=O)O [Compound 16, 3-((3,5-Dimethyl-1H-pyrazol-4-yl)amino)isonicotinic acid] | 10 to 100
Cc1nn(C2CCCN(C)CC2)cc1Nc1cnccc1C(=O)O (stereo not shown) [Compound 111, 3-(3-methyl-1-(1-methylazepan-4-yl)-1H-pyrazol-4-ylamino) isonicotinic acid] | 10 to 100
Cc1c(Nc2cnccc2C(=O)O)cnn1C1CCN(CC(F)(F)F)CC1 [Compound 100, 3-(5-methyl-1-(1-(2,2,2-tri-fluoro-ethyl)piperidin-4-yl)-1H-pyrazol-4-ylamino)isonicotinic acid] | 1 to 10
Cc1nn(C2CCNCC2)cc1Nc1cnccc1C(=O)O [Compound 69, 3-((3-methyl-1-(piperidin-4-yl)-1H-pyrazol-4-yl)amino) isonicotinic acid] | 0.1 to 1
NCCn1nc(-c2ccccc2)cc1Nc1cnccc1C(=O)O [Compound 26] | 1 to 10
COCCn1nc(-c2ccccc2)cc1Nc1cnccc1C(=O)O [Compound 27, 3-((1-(2-Methoxyethyl)-3-phenyl-1H-pyrazol-5-yl)amino) isonicotinic acid] | 0.1 to 1
O=C(O)c1ccncc1Nc1cn(CCN2CCC(F)(F)CC2)nc1-c1ccccc1 [Compound 17, 3-((1-(2-(4,4-Difluoropiperidin-1-yl)ethyl)-3-phenyl-1H-pyrazol-4-yl)amino)isonicotinic acid] | 0.1 to 1
Cc1c(Nc2cnccc2C(=O)O)cnn1C1CCN(C(C)C)CC1 [Compound 104] | 1 to 10
N[C@H]1CC[C@H](n2nc(-c3ccccc3)cc2Nc2cnccc2C(=O)O)CC1 [Compound 38, 3-((1-((trans)-4-aminocyclohexyl)-3-phenyl-1H-pyrazol-5-yl)amino)isonicotinic acid] | 1 to 10
O=C(O)c1ccncc1Nc1c(-c2ccccc2)cnn1CCN1CCC(F)(F)CC1 [Compound 15, 3-((1-(2-(4,4-difluoropiperidin-1-yl)ethyl)-4-phenyl-1H-pyrazol-5-yl)amino)isonicotinic acid] | 1 to 10
Cc1c(Nc2cnccc2C(=O)O)cnn1C1CCCN(C)CC1 (stereo not shown) [Compound 112, 3-((5-methyl-1-(1-methylazepan-4-yl)-1H-pyrazol-4-yl)amino)isonicotinic acid] | 0.1 to 1
COC(=O)c1ccncc1Nc1cn(C2CCN(C(C)C)CC2)nc1C [Compound 101, methyl 3-((1-(1-isopropylpiperidin-4-yl)-3-methyl-1H-pyrazol-4-yl)amino)isonicotinate] | 10 to 100
O=C(O)c1ccncc1Nc1nn(CCN2CCC(F)(F)CC2)cc1C1CCCCC1 [Compound 57, 3-((4-cyclohexyl-1-(2-(4,4-difluoropiperidin-1-yl)ethyl)-1H-pyrazol-3-yl)amino)isonicotinic acid] | 0.1 to 1
O=C(O)c1ccncc1Nc1cc(-c2ccccc2)nn1C1CCOCC1 [Compound 23, 3-((3-Phenyl-1-(tetrahydro-2H-pyran-4-yl)-1H-pyrazol-5-yl)amino)isonicotinic acid] | 1 to 10
Cc1c(Nc2cnccc2C(=O)O)cnn1Cc1ccccc1 [Compound 33, 3-((1-benzyl-5-methyl-1H-pyrazol-4-yl)amino)isonicotinic acid] | 0.1 to 1
O=C(O)c1ccncc1Nc1cc(-c2ccccc2)nn1[C@H]1CC[C@@H](O)CC1 [Compound 40, 3-((1-((cis)-4-Hydroxycyclohexyl)-3-phenyl-1H-pyrazol-5-yl)amino)isonicotinic acid] | 1 to 10
O=C(O)c1ccncc1Nc1cc(-c2ccccc2)nn1-c1ccccc1 [Compound 21, 3-((1,3-Diphenyl-1H-pyrazol-5-yl)amino)isonicotinic acid] | 0.1 to 1

More lines, now with the values ahead:

IC50 [µM] | SMILES
1 to 10 | Cc1cn(-c2ccccc2)c(Nc2cnccc2C(=O)O)n1 [Compound 2]
1 to 10 | Cc1cc(Nc2cnccc2C(=O)O)n(-c2ccccc2)n1 [Compound 61, 3-((3-methyl-1-phenyl-1H-pyrazol-5-yl)amino) isonicotinic acid]
0.1 to 1 | CC(C)n1nc(-c2ccccc2)cc1Nc1cnccc1C(=O)O [Compound 22, 3-((1-Isopropyl-3-phenyl-1H-pyrazol-5-yl)amino)isonicotinic acid]
1 to 10 | CN(C)CCCn1ncc(-c2ccccc2)c1Nc1cnccc1C(=O)O [Compound 52, 3-((1-(3-(dimethylamino)propyl)-4-phenyl-1H-pyrazol-5-yl)amino) isonicotinic acid]
1 to 10 | O=C(O)c1ccncc1Nc1c(-c2ccc(F)cc2)cnn1CCN1CCC(F)(F)CC1 [Compound 46, 3-((1-(2-(4,4-difluoropiperidin-1-yl)ethyl)-4-(4-fluorophenyl)-1H-pyrazol-5-yl)amino) isonicotinic acid]
10 to 100 | Cc1nn(-c2ccccc2)c(C)c1Nc1cnccc1C(=O)O [Compound 77, 3-((3,5-dimethyl-1-phenyl-1H-pyrazol-4-yl)amino)isonicotinic acid]
0.001 to 0.1 | Cn1nc(-c2ccccc2)cc1Nc1cnccc1C(=O)O [Compound 6]
10 to 100 | COc1ccc(-n2nc(C)c(Nc3cnccc3C(=O)O)c2C)cc1 [Compound 75, 3-((1-(4-methoxyphenyl)-3,5-dimethyl-1H-pyrazol-4-yl)amino)isonicotinic acid]
0.1 to 1 | Cn1ncc(-c2ccccc2F)c1Nc1cnccc1C(=O)O [Compound 12, 3-((4-(2-fluorophenyl)-1-methyl-1H-pyrazol-5-yl)amino) isonicotinic acid]
0.1 to 1 | Cn1cc(-c2ccc(F)cc2)c(Nc2cnccc2C(=O)O)n1 [Compound 7, 3-((4-(4-Fluorophenyl)-1-methyl-1H-pyrazol-3-yl)amino) isonicotinic acid]
1 to 10 | Cc1c(-c2ccccc2)nn(C)c1Nc1cnccc1C(=O)O [Compound 53, 3-((1,4-dimethyl-3-phenyl-1H-pyrazol-5-yl)amino)isonicotinic acid]
1 to 10 | Cc1n[nH]c(-c2ccccc2)c1Nc1cnccc1C(=O)O [Compound 55, 3-((5-methyl-3-phenyl-1H-pyrazol-4-yl)amino)isonicotinic acid]
10 to 100 | Cn1ncc(-c2ccc(F)cc2)c1Nc1cnccc1C(=O)O [Compound 8, 3-((4-(4-fluorophenyl)-1-methyl-1H-pyrazol-5-yl)amino) isonicotinic acid]
0.001 to 0.1 | O=C(O)c1ccncc1Nc1nn(CCN2CCC(F)(F)CC2)cc1-c1ccc(F)cc1 [Compound 45, 3-((1-(2-(4,4-difluoropiperidin-1-yl)ethyl)-4-(4-fluorophenyl)-1H-pyrazol-3-yl)amino)isonicotinic acid]
0.001 to 0.1 | CCn1nc(-c2ccccc2)cc1Nc1cnccc1C(=O)O [Compound 36, 3-((1-Ethyl-3-phenyl-1H-pyrazol-5-yl)amino)isonicotinic acid]
1 to 10 | Cn1cc(-c2ccccc2)c(Nc2cnccc2C(=O)O)n1 [Compound 3]
0.001 to 0.1 | Cn1nc(-c2cccc(Cl)c2)cc1Nc1cnccc1C(=O)O [Compound 25, 3-((3-(3-chlorophenyl)-1-methyl-1H-pyrazol-5-yl)amino) isonicotinic acid]
1 to 10 | Cn1ncc(-c2ccccc2)c1Nc1cnccc1C(=O)O [Compound 1]
0.1 to 1 | O=C(O)c1ccncc1Nc1nn(CCC(F)(F)F)cc1-c1ccncc1 [Compound 74, 3-((4-(pyridin-4-yl)-1-(3,3,3-trifluoropropyl)-1H-pyrazol-3-yl)amino)isonicotinic acid]
1 to 10 | Cn1cc(-c2ccccc2F)c(Nc2cnccc2C(=O)O)n1 [Compound 11, 3-((4-(2-Fluorophenyl)-1-methyl-1H-pyrazol-3-yl)amino) isonicotinic acid]
1 to 10 | CN(C)CCn1ncc(-c2ccccc2)c1Nc1cnccc1C(=O)O [Compound 65, 3-((1-(2-(dimethylamino)ethyl)-4-phenyl-1H-pyrazol-5-yl)amino)isonicotinic acid]
